Data taken from US12622918B2, “Formulations and dosages for administering a compound that inhibits MCL1 protein” (Amgen Inc., priority 2019, dated 2026).

Key:
rat = assay: 28-day GLP rat IV infusion toxicology study; assay type: in vivo
Excerpt: The doses selected for the 28-day IV rat and dog toxicology studies were intended to characterize the toxicity of the compound of Formula I and provide data to support a starting dose in the first-in-human (FIH) study. An IV route of administration and a dosing schedule of 2 days on/5 days off was used to support the anticipated clinical route and dosing schedule.

[1] = Excerpt: Nonclinical safety studies on the compound of Formula I consisted of an exploratory 14-day dog IV toxicology study, Good Laboratory Practices (GLP) 28-day rat and dog IV toxicology studies, in vitro exploratory genotoxicity studies (GLP human ether-á-go-go related gene [hERG] and non-GLP isolated rabbit heart) to characterize potential cardiovascular effects. The doses selected for the 28-day IV rat and dog toxicology studies were intended to characterize the toxicity of the compound of Formula I and provide data to support a starting dose in the first-in-human (FIH) study. An IV route of administration and a dosing schedule of 2 days on/5 days off was used to support the anticipated clinical route and dosing schedule. In a 28-day GLP rat IV infusion toxicology study, the severely toxic dose in 10% of animals (STD10) was 60 mg/kg based on mortality at 120 mg/kg and in a 28-day GLP IV toxicology study in dogs, the highest-nonseverely-toxic dose (HNSTD) was 10 mg/kg based on mortality at 20 mg/kg.
[2] = test system: Molm13-Luc orthotopic tumors; assay: MOLM-13 Luc acute myeloid leukemia orthotopic model; assay type: in vivo; conditions: for TGI (tumor burden, whole body luminescence): female NSG mice
Protocol: On day 0, 70 female NSG mice were injected IV with 5×10^4 human Molm13-Luc AML tumor cells.

Mouse MCL1 = Mouse MCL1 (Mus musculus, UniProt P97287); assay: Cell-free TR-FRET BIM-binding assay, Mouse MCL1; conditions: BIM-binding partner Mouse MCL1; n = 3
Mouse MCL1, sequence (P97287 whole entry): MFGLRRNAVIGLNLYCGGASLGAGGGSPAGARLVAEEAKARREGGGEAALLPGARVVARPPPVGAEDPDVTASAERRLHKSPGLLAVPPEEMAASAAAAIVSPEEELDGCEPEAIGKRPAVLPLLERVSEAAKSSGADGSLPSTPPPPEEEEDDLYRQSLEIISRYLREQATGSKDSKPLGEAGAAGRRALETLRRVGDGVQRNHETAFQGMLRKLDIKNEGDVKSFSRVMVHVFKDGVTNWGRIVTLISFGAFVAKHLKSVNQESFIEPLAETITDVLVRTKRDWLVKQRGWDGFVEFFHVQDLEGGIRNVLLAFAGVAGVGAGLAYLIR

Pfeiffer = assay: Cell viability (CellTiterGlo), Pfeiffer; assay type: cell-based; conditions: Homo sapiens, NHL, 24 hours, 10% FBS, read-out: AMS 176 IC50
KMS34 = assay: Cell viability (CellTiterGlo), KMS34; assay type: cell-based; conditions: KMS-34; KMS34, Multiple myeloma; 24 hours; 10% FBS; read-out: AMS 176 IC50
BAK = BAK activation in OPM2-Luc tumor xenografts (PD); assay type: in vivo, mice; conditions: for BAK activation: 2-, vs vehicle p<0.05
Protocol: (§1) Activation of the pro-apoptotic pore-forming protein BAK and proteolytic cleavage of the cysteine-aspartic acid protease caspase 3 (hallmarks of the induction of apoptosis) in MCL1-dependent OPM2-Luc multiple myeloma tumor cells served as a PD assay. Female athymic nude mice were injected with 5×10^6 cells in 0.1 mL subcutaneously (SC). […] Mice were euthanized 2, 4, 8, 12, and 24 hours postdose (n=3/group), terminal plasma samples were collected for PK analysis, and tumors were halved and snap frozen in liquid nitrogen for PK and molecular analyses. Tumor lysates were prepared for evaluation of BAK activation and caspase 3 cleavage using an electrochemiluminescence immunoassay. Tumors treated with vehicle (25% HPβCD, pH 8) served as a negative control and indicated the baseline level of apoptosis.

[3] = test system: subjects with relapsed/refractory acute myelogenous leukemia; assay: Phase 1 FIH study, acute myeloid leukemia part 3; assay type: in vivo, human
Protocol: In part 3, 10 total subjects were enrolled across 2 cohorts, with doses of 60 mg/m^2 or 120 mg/m^2.

caspase 3 = assay: Caspase 3 cleavage in OPM2-Luc tumor xenografts (PD); assay type: in vivo, mice; conditions: for induction of caspase 3 cleavage: 4-, vs vehicle p<0.05
Protocol: as §1

Pharmacokinetics in mice = assay type: in vivo
Excerpt: (§2) The pharmacokinetics (PK) of the compound of Formula I after single intravenous (IV) or oral administration were characterized in male CD1 mice, female athymic nude mice, male Nu/Nu mice, male Sprague Dawley rats, male beagle dogs, and male cynomolgus monkeys. The clearance (CL) of the compound was low in mice, rats, dogs, and monkeys relative to their hepatic blood flow. Volume of distribution at steady state (Vss) in mice, rats, dogs, and monkeys was variable across the species.

HEL 92.1.7 = assay: Cell viability (CellTiterGlo), HEL 92.1.7; assay type: cell-based; conditions: Homo sapiens; HEL 92.1.7, AML; 24 hours; 10% FBS; read-out: AMS 176 IC50
KMS-12-PE = assay: Cell viability (CellTiterGlo), KMS-12-PE; assay type: cell-based; conditions: Homo sapiens, Multiple myeloma, 24 hours, 10% FBS, read-out: AMS 176 IC50
[4] = Plasma concentration in OPM2-Luc tumor-bearing mice; assay type: in vivo; conditions: 60 mg/kg oral gavage; female athymic nude mice
Protocol: as §1

[5] = Pharmacokinetics in monkeys; conditions: male, monkey, in vivo, read-out: mean terminal elimination half-life (t1/2,z) (converted)
Excerpt: as §2

KMS-12-BM = assay: Cell viability (CellTiterGlo), KMS-12-BM; assay type: cell-based; conditions: Homo sapiens, Multiple myeloma, 24 hours, 10% FBS, read-out: AMS 176 IC50
KMS-28-BM = assay: Cell viability (CellTiterGlo), KMS-28-BM; assay type: cell-based; conditions: Multiple myeloma, 24 hours, 10% FBS, read-out: AMS 176 IC50
HL-60 = assay: Cell viability (CellTiterGlo), HL-60; assay type: cell-based; conditions: Homo sapiens; HL-60, AML; 24 hours; 10% FBS; read-out: AMS 176 IC50
MOLM-13 = assay: Cell viability (CellTiterGlo), MOLM-13; assay type: cell-based; conditions: Homo sapiens; MOLM-13, AML; 24 hours; 10% FBS; read-out: AMS 176 IC50

For CO[C@H]1/C=C/C[C@H](C)[C@@H](C)S(=O)(=O)NC(=O)c2ccc3c(c2)N(C[C@@H]2CC[C@H]21)C[C@@]1(CCCc2cc(Cl)ccc21)CO3 [AMG 176], the “finding related to morbidity and mortality” value (rat) was “mucosal epithelial degeneration in the small and large intestines”, the dose with mortality (rat; IV infusion, 28-day) was 120 mg/kg and the “severely toxic dose in 10% of animals (STD10)” value (rat; IV infusion, 2 days on/5 days off, 28-day) was 60 mg/kg. The genotoxicity [1] was “not mutagenic or clastogenic”, the “TGI (tumor burden, whole body luminescence)” value (“TGI” below) ([2]; 30 mg/kg oral QD2) was 28% and the “TGI” value ([2]; 60 mg/kg oral QD2) was 69%. The “TGI” value ([2]; 100 mg/kg oral QD) was 86%, the “overt toxicity by changes in body weight” value ([2]; all AMG 176 groups) was “No evidence of overt toxicity” and the IC50 (Mouse MCL1) was 49.8 nM. The IC50 (Pfeiffer) was 18900 nM, the IC50 (KMS34) was 6050 nM and the BAK activation (BAK; 30 mg/kg oral gavage, 4-, and 8-hour time points) was “Statistically significant BAK activation”. The “time point of greatest BAK activation” value (BAK; 60 mg/kg oral gavage) was 4 h, the BAK activation (BAK; 60 mg/kg oral gavage, 4-, 8-, and 12-hour time points) was “Statistically significant BAK activation” and the “induction of multiple markers of apoptosis, including BAK activation and caspase 3 cleavage” value (BAK; OPM2-Luc tumor xenografts, summary statement) was “dose-dependent induction”. For the same compound, the “Grade 3 adverse events, subjects” value ([3]; AML part 3) was 70%, the “Serious adverse events, subjects” value ([3]; AML part 3) was 60% and the “adverse events considered related to AMG 176, subjects” value ([3]; AML part 3) was 40%. The “adverse events leading to discontinuation of investigational product, subjects” value ([3]; AML part 3) was 20%, the fatal adverse events ([3]; AML part 3) was “No fatal adverse events occurred” and the “febrile neutropenia leading to discontinuation” value ([3]; AML part 3) was 10%. For the same compound, the “grade 4 adverse events, subjects” value ([3]; AML part 3) was 20%, the “related increased blood bilirubin” value ([3]; AML part 3) was 20% and the related nausea ([3]; AML part 3) was 20%. For the same compound, the “superior vena cava syndrome leading to discontinuation” value ([3]; AML part 3) was 10%, the “adverse events, subjects” value ([3]; AML part 3, 10 subjects) was 80% and the “anemia, subjects” value ([3]; AML part 3, any grade) was 20%. The “hypokalemia, subjects” value ([3]; AML part 3, any grade) was 30%, the “hypomagnesemia, subjects” value ([3]; AML part 3, any grade) was 20% and the “increased blood bilirubin, subjects” value ([3]; AML part 3, any grade) was 20%. For the same compound, the “nausea, subjects” value ([3]; AML part 3, any grade) was 30%, the “peripheral edema, subjects” value ([3]; AML part 3, any grade) was 30% and the “pyrexia, subjects” value ([3]; AML part 3, any grade) was 20%. For the same compound, the “vomiting, subjects” value ([3]; AML part 3, any grade) was 20%, the “anemia of grade 3 or higher” value ([3]; AML part 3, both cohorts combined) was 20% and the “exposures (Cmax and AUC) versus dose” value ([3]; AML, 10 subjects, 60 or 120 mg/m^2, preliminary) was “generally increased with increasing doses”. For the same compound, the “induction of caspase 3 cleavage” value (caspase 3; 20 mg/kg oral gavage, 8-, and 12-hour time points) was “Statistically significant induction of caspase 3 cleavage”, the “induction of caspase 3 cleavage” value (caspase 3; 30 mg/kg oral gavage, 2-, 8-, and 12-hour time points) was “Statistically significant induction of caspase 3 cleavage” and the “induction of caspase 3 cleavage” value (caspase 3; 60 mg/kg oral gavage, 2-, 8-, 12-, and 24-hour time points) was “Statistically significant induction of caspase 3 cleavage”. For the same compound, the “induction of cleaved caspase 3” value (caspase 3; 60 mg/kg, 2 hours postdose, persisted to 12 hours) was “approximately 7.5 fold”, the “cleaved caspase levels above control” value (caspase 3; 60 mg/kg, 24 hours postdose) was 5 fold and the “mean terminal elimination half-life (t1/2,z)” value (Pharmacokinetics in mice) was 13.8 h. The IC50 (HEL 92.1.7) was 5990 nM, the IC50 (KMS-12-PE) was 131 nM and the “time point of peak AMG 176 plasma concentration” value [4] was 4 h. The half-life [5] was 1.66 h, the IC50 (KMS-12-BM) was 15 nM and the IC50 (KMS-28-BM) was 205 nM. The IC50 (HL-60) was 110 nM and the IC50 (MOLM-13) was 241 nM.
